Laboratory results as given in PMC9120017, “Inhibition mechanism of the chloride channel TMEM16A by the pore blocker 1PBC” (Nature Communications, 2022).
Read-outs that look alike come from different tables or passages of the source.

Target: T1, mouse TMEM16A mutant G510P (Mus musculus, UniProt Q8BHY3, G510P)
T1 construct: expressed in transfected cells; host or cells: HEK293T
T1 sequence (Q8BHY3 1-960 G510P): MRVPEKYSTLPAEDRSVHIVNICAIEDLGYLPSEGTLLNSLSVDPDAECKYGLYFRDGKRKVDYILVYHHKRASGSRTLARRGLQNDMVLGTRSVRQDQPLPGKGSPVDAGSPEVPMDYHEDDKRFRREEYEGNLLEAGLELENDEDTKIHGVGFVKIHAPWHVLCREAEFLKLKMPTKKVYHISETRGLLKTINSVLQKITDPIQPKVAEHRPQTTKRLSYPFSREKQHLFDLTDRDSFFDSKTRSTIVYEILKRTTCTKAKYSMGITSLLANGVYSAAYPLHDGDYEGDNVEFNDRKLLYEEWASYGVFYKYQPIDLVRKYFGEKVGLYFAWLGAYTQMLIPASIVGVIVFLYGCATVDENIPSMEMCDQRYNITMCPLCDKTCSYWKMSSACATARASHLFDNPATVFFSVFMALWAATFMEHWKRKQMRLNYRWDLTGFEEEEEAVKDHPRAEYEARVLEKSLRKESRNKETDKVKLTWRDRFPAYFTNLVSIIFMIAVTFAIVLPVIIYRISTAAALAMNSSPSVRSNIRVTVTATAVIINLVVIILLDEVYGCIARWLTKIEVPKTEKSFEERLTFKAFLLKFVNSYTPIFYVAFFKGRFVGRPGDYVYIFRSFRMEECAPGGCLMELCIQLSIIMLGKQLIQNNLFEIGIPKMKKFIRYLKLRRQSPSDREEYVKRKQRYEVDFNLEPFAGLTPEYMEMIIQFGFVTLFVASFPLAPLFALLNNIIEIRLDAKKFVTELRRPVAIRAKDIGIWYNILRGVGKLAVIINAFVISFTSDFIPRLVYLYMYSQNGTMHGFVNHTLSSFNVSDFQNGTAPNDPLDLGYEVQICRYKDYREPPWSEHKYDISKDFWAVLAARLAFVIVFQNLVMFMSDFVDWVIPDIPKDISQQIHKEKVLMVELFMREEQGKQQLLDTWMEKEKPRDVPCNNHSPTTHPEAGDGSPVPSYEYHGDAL
Assay: Inside-out patch recording of 1PBC block, mutant G510P
Assay type: cell-based
Settings: for remaining activity at 3 µM: 1PBC 3; for remaining activity at 3 µM / remaining activity at 10 µM / remaining activity at 30 µM / remaining activity at 100 µM: read-out: fraction of unblocked current; for remaining activity at 10 µM: 1PBC 10; for remaining activity at 30 µM: 1PBC 30; for remaining activity at 100 µM: 1PBC 100
Description: HEK293T cells (ATCC CRL-1573) were maintained in Dulbecco’s modified Eagle’s medium (DMEM; Sigma-Aldrich) supplemented with 10 U ml^−1 penicillin, 0.1 mg ml^−1 streptomycin (Sigma-Aldrich), 2 mM L-glutamine (Sigma-Aldrich), and 10% FBS (Sigma-Aldrich) in a humidified atmosphere containing 5% CO2 at 37 °C. HEK293S GnTI^− cells (ATCC CRL-3022) were maintained in HyClone HyCell TransFx-H medium (GE Healthcare) supplemented with 10 U ml^−1 penicillin, 0.1 mg ml^−1 streptomycin, 4 mM L-glutamine, 0.15% poloxamer 188 (Sigma-Aldrich), and 1% FBS in an atmosphere containing 5% CO2 at 185 rpm at 37 °C. The ac splice variant of mouse TMEM16A (UniProt ID: Q8BHY3), mouse TMEM16B (UniProt ID: Q8CFW1), or mouse TMEM16F (UniProt ID: Q6P9J9) bearing a 3C cleavage site, a Venus YFP, a Myc tag, and a Streptavidin-binding peptide (SBP) downstream of the open reading frame in a modified pcDNA3.1 vector (Invitrogen) were used as described previously[21],[31]. Mutations were introduced using a modified QuikChange method[58] and were verified by sequencing.
HEK293T cells were transfected with 3–4 μg DNA per 6 cm Petri dish using the calcium phosphate co-precipitation method and were used within 24–96 h after transfection. Recordings were performed on inside-out patches excised from HEK293T cells expressing the construct of interest. Patch pipettes were pulled from borosilicate glass capillaries (O.D. 1.5 mm, I.D. 0.86 mm, Sutter Instrument) and were fire-polished with a microforge (Narishige) before use. Pipette resistance was typically 3–8 MΩ when filled with the recording solutions detailed below. Seal resistance was typically 4 GΩ or higher. Voltage-clamp recordings were made using Axopatch 200B, Digidata 1550, and Clampex 10.7 (Molecular Devices). Analog signals were filtered with the in-built 4-pole Bessel filter at 10 kHz and were digitized at 20 kHz. Solution exchange was achieved using a gravity-fed system through a theta glass pipette mounted on an ultra-fast piezo-driven stepper (Siskiyou). […] All recordings were performed at 20 °C.
A symmetrical ionic condition was used throughout. Stock solution with Ca^2+-EGTA contained 150 mM NaCl, 5.99 mM Ca(OH)2, 5 mM EGTA, and 10 mM HEPES at pH 7.40. Stock solution with EGTA contained 150 mM NaCl, 5 mM EGTA, and 10 mM HEPES at pH 7.40. Free Ca^2+ concentrations were adjusted by mixing the stock solutions at the required ratios calculated using the WEBMAXC program (http://web.stanford.edu/~cpatton/webmaxcS.htm). Patch pipettes were filled with the stock solution with Ca^2+-EGTA, which has a free Ca^2+ concentration of 1 mM. 1PBC (ChemBridge) stock was reconstituted in anhydrous DMSO (Sigma-Aldrich) at 100 mM and stored at −20 °C. Working solutions with 1PBC were prepared by serial dilution. Unless otherwise stated, experiments were performed at a saturating Ca^2+ concentration as shown in Supplementary Table 1 and the primary data were corrected for current rundown as described previously[21],[25].
Concentration-response relations, obtained from the ratio of the I-V plots before and after the application of the blocker, were fitted to the Hill equation,1 I/Imax=1/1+IC50/[blocker]^h where I/Imax is the normalized current responses, IC50 defines the concentration at which inhibition is at its half-maximum, and h is the Hill coefficient.

N#Cc1c(C(F)(F)F)cc(O)n2c1nc1ccccc12 [1PBC] was tested, and the IC50 (0 mV, 15 µM Ca2+) was 65.7 µM, the “I/Imax_+80mV” value (3 μM 1PBC) was 0.9738 and the I/Imax_-80mV (3 μM 1PBC, -80 mV) was 0.9802. The “I/Imax_+80mV” value (10 μM 1PBC) was 0.8477, the I/Imax_-80mV (10 μM 1PBC, -80 mV) was 0.885 and the “I/Imax_+80mV” value (30 μM 1PBC) was 0.6076. For the same compound, the I/Imax_-80mV (30 μM 1PBC, -80 mV) was 0.6861, the “I/Imax_+80mV” value (100 μM 1PBC) was 0.3872 and the I/Imax_-80mV (100 μM 1PBC, -80 mV) was 0.4945. For the same compound, the remaining activity at 3 µM (0 mV) was 95.8%, the remaining activity at 3 µM (20 mV) was 95.6% and the remaining activity at 3 µM (40 mV) was 96.9%. For the same compound, the remaining activity at 3 µM (60 mV) was 95.5%, the remaining activity at 3 µM (80 mV) was 97.4% and the remaining activity at 3 µM (100 mV) was 99.8%. It also gave a remaining activity at 3 µM (120 mV) of 99.8%, a remaining activity at 3 µM (140 mV) of 104% and a remaining activity at 3 µM (-20 mV) of 96%. It also gave a remaining activity at 3 µM (-40 mV) of 97.4%, a remaining activity at 3 µM (-60 mV) of 99% and a remaining activity at 3 µM (-80 mV) of 98%. The remaining activity at 3 µM (-100 mV) was 97.4%, the remaining activity at 3 µM (-120 mV) was 96.4% and the remaining activity at 3 µM (-140 mV) was 96%. It also gave a remaining activity at 10 µM (0 mV) of 86.9%, a remaining activity at 10 µM (20 mV) of 85.8% and a remaining activity at 10 µM (40 mV) of 85%. The remaining activity at 10 µM (60 mV) was 84.7%, the remaining activity at 10 µM (80 mV) was 84.8% and the remaining activity at 10 µM (100 mV) was 86%. It also gave a remaining activity at 10 µM (120 mV) of 86.5%, a remaining activity at 10 µM (140 mV) of 87.9% and a remaining activity at 10 µM (-20 mV) of 88%. It also gave a remaining activity at 10 µM (-40 mV) of 90.2%, a remaining activity at 10 µM (-60 mV) of 89.1% and a remaining activity at 10 µM (-80 mV) of 88.5%. For the same compound, the remaining activity at 10 µM (-100 mV) was 89.4%, the remaining activity at 10 µM (-120 mV) was 88.8% and the remaining activity at 10 µM (-140 mV) was 89%. The remaining activity at 30 µM (0 mV) was 64.5%, the remaining activity at 30 µM (20 mV) was 64.5% and the remaining activity at 30 µM (40 mV) was 63.6%. It also gave a remaining activity at 30 µM (60 mV) of 62.9%, a remaining activity at 30 µM (80 mV) of 60.8% and a remaining activity at 30 µM (100 mV) of 62.7%. The remaining activity at 30 µM (120 mV) was 62.8%, the remaining activity at 30 µM (140 mV) was 65.9% and the remaining activity at 30 µM (-20 mV) was 64.6%. For the same compound, the remaining activity at 30 µM (-40 mV) was 66.2%, the remaining activity at 30 µM (-60 mV) was 68.7% and the remaining activity at 30 µM (-80 mV) was 68.6%. It also gave a remaining activity at 30 µM (-100 mV) of 69.3%, a remaining activity at 30 µM (-120 mV) of 71.3% and a remaining activity at 30 µM (-140 mV) of 73.4%. For the same compound, the remaining activity at 100 µM (0 mV) was 43.2%, the remaining activity at 100 µM (20 mV) was 42.1% and the remaining activity at 100 µM (40 mV) was 40.7%. For the same compound, the remaining activity at 100 µM (60 mV) was 40.1%, the remaining activity at 100 µM (80 mV) was 38.7% and the remaining activity at 100 µM (100 mV) was 39.6%. It also gave a remaining activity at 100 µM (120 mV) of 40.6%, a remaining activity at 100 µM (140 mV) of 42.9% and a remaining activity at 100 µM (-20 mV) of 44.4%. For the same compound, the remaining activity at 100 µM (-40 mV) was 47.1%, the remaining activity at 100 µM (-60 mV) was 49.1% and the remaining activity at 100 µM (-80 mV) was 49.4%. For the same compound, the remaining activity at 100 µM (-100 mV) was 50.5%, the remaining activity at 100 µM (-120 mV) was 52.6% and the remaining activity at 100 µM (-140 mV) was 52.8%. For the same compound, the IC50 (20 mV, 15 µM Ca2+) was 63.2 µM, the IC50 (40 mV, 15 µM Ca2+) was 60.2 µM and the IC50 (60 mV, 15 µM Ca2+) was 58.2 µM. It also gave an IC50 (80 mV, 15 µM Ca2+) of 54.9 µM, an IC50 (100 mV, 15 µM Ca2+) of 59.3 µM and an IC50 (120 mV, 15 µM Ca2+) of 60.9 µM. For the same compound, the IC50 (140 mV, 15 µM Ca2+) was 69.5 µM, the IC50 (-20 mV, 15 µM Ca2+) was 68.2 µM and the IC50 (-40 mV, 15 µM Ca2+) was 76.6 µM. The IC50 (-60 mV, 15 µM Ca2+) was 83.4 µM, the IC50 (-80 mV, 15 µM Ca2+) was 83.4 µM and the IC50 (-100 mV, 15 µM Ca2+) was 87.4 µM. The IC50 (-120 mV, 15 µM Ca2+) was 94.4 µM, the IC50 (-140 mV, 15 µM Ca2+) was 98.6 µM and the IC50 (G510P, V 0 mV) was 65.7 µM. The IC50 (G510P, V 20 mV) was 63.2 µM, the IC50 (G510P, V 40 mV) was 60.2 µM and the IC50 (G510P, V 60 mV) was 58.2 µM. For the same compound, the IC50 (G510P, V 80 mV) was 54.9 µM, the IC50 (G510P, V 100 mV) was 59.3 µM and the IC50 (G510P, V 120 mV) was 60.9 µM. The IC50 (G510P, V 140 mV) was 69.5 µM, the IC50 (G510P, V -20 mV) was 68.2 µM and the IC50 (G510P, V -40 mV) was 76.6 µM. The IC50 (G510P, V -60 mV) was 83.4 µM, the IC50 (G510P, V -80 mV) was 83.4 µM and the IC50 (G510P, V -100 mV) was 87.4 µM. For the same compound, the IC50 (G510P, V -120 mV) was 94.4 µM and the IC50 (G510P, V -140 mV) was 98.6 µM.
